In patent US10280198B2, “Therapeutic agents for reducing parathyroid hormone levels” (KAI PHARMACEUTICALS, INC., priority 2009, dated 2019):
Square brackets hold non-standard residues; d marks the D form. Peptide text beside a SMILES is read from it. dNle = CCCC[C@@H](N)C(=O)O

Legend:
plasma PTH = assay: In vivo PTH lowering after IV bolus in isoflurane-anesthetized normal Sprague Dawley rats; parameters: species or system rat; conditions: for 0.5 mg/kg IV bolus % PTH AUC of saline control: normal rats, AUC 1-4 h; for % PTH reduction of baseline at 1 hour post IV administration of 0.5 mg/kg compound: isoflurane-anesthetized normal rats, 0.5 mg/kg IV
Protocol: The peptides were administered intravenously at a dose of 0.5 mg/kg into isoflurane-anesthetized normal Sprague Dawley rats. A control group of rats was treated with saline. Blood was drawn prior to dosing and every hour for 4 hours. Rats were maintained under isoflurane anesthesia for the entire study. […] Percent PTH reduction was calculated according to the following formula: AUCcmpd treated/AUCsaline control*100.
An intravenous (IV) bolus of saline was used as a control. Plasma (K2EDTA) PTH levels were assessed prior to dosing and 1, 2, 3 and 4 hours after dosing. Rats were maintained under isoflurane anesthesia for the entire study. […] In FIG. 2B, PTH is shown as percent of the baseline pre-dose value.
A series of compounds having an L-amino acid residue substituted for a D-amino acid residue were prepared. The compounds were administered as an IV bolus to normal Sprague Dawley rats at a dose of 0.5 mg/kg. An intravenous (IV) bolus of saline was used as a control. […] Rats were maintained under isoflurane anesthesia for the entire study.

[1] = system: rat peritoneal mast cells; assay: In vitro histamine induction in rat peritoneal mast cells; assay type: cell-based
Protocol: To further evaluate the relationship between compound structure and histamine release, a series of compounds was prepared and assessed for their ability to trigger induction of histamine in an in vitro assay using rat peritoneal mast cells. In this assay, compounds are incubated at 10 μM for 15 minutes at 37° C. with cells isolated from peritoneal lavage of SD rats. Following incubation, cell medium is collected and histamine is determined.
Accordingly, and as can be appreciated in view of the PTH data and the histamine data described hereinabove, in one embodiment, a compound that has activity to decrease PTH level in a subject in the absence of a histamine response is contemplated. In certain embodiments, absence of a histamine response intends a dose of the compound that produces a less than 10-fold, more preferably 8-fold, still more preferably 5-fold, and even still more preferably 3-fold, increase in histamine, measured in vitro in an assay as described herein, where the fold change is determined based on histamine levels before incubation with the compound and after 15 minutes incubation with compound. In a specific embodiment, the histamine response is determined in an in vitro assay using rat peritoneal mast cells isolated from peritoneal lavage of normal Sprague Dawley rats, and where the fold change is determined based on histamine levels before incubation with the compound and after 15 minutes incubation with compound. In the studies conducted herein, the in vitro evaluation of histamine release was performed using isolated rat peritoneal mast cells isolated by peritoneal lavage using cold HBSS+25 mM HEPES pH 7.4 containing heparin (5 u/mL). Cells were washed twice in stimulation buffer (HBSS+25 mM HEPES pH 7.4) and incubated with 10 μM of compound in stimulation buffer (HBSS+25 mM HEPES pH 7.4) for 15 minutes in a 96-well plate ([…]) at 37° C. Cell supernatant was analyzed for histamine using histamine EIA kit (Cayman #589651).
For in vitro evaluation of histamine release, isolated rat peritoneal mast cells were isolated by performing peritoneal lavage using cold HBSS+25 mM HEPES pH 7.4 containing heparin (5 u/mL). Cells were washed twice in stimulation buffer (HBSS+25 mM HEPES pH 7.4) and incubated with 10 μM of compound in stimulation buffer (HBSS+25 mM HEPES pH 7.4) for 15 minutes in a 96-well plate (10^6/well) at 37° C. Cell supernatant was analyzed for histamine using histamine EIA kit (Cayman #589651).

Row | Compound | Histamine in vitro Fold change of non-treated at 10 uM [1] | 0.5 mg/kg IV bolus % PTH AUC of saline control (plasma PTH; Table 6) | % PTH reduction of baseline at 1 hour post IV administration of 0.5 mg/kg compound (plasma PTH; Table 2) | 0.5 mg/kg IV bolus % PTH AUC of saline control (plasma PTH; Table 2) | 0.5 mg/kg IV bolus % PTH AUC of saline control (plasma PTH; Table 7)
1 | CC(=O)N[C@H](CS)C(=O)N[C@H](CCCNC(=N)N)C(=O)N[C@H](CCCNC(=N)N)C(=O)N[C@@H](C(=O)N[C@H](CCCNC(=N)N)C(=O)N[C@H](C)C(=O)N[C@H](CCCNC(=N)N)C(N)=O)[C@H](C)O [SEQ ID NO: 108, Ac-crrtrar-NH2] (Ac-[dC][dR][dR][dT][dR][dA][dR]-NH2) | 1.2 fold | 13% | – | – | –
2 | CC(=O)N[C@H](CS)C(=O)N[C@H](C)C(=O)N[C@H](CCCNC(=N)N)C(=O)N[C@H](CCCNC(=N)N)C(=O)N[C@H](CCCNC(=N)N)C(=O)N[C@@H](C(=O)N[C@H](CCCNC(=N)N)C(N)=O)[C@H](C)O [SEQ ID NO: 91, Ac-carrrtr-NH2] (Ac-[dC][dA][dR][dR][dR][dT][dR]-NH2) | 1.7 fold | 18% | – | – | –
3 | CC(=O)N[C@H](CS)C(=O)N[C@H](C)C(=O)N[C@H](CCCNC(=N)N)C(=O)N[C@H](CCCNC(=N)N)C(=O)N[C@H](CCCNC(=N)N)C(=O)N1CCC[C@@H]1C(=O)N[C@H](CCCNC(=N)N)C(N)=O [SEQ ID NO: 88, Ac-carrrpr-NH2] (Ac-[dC][dA][dR][dR][dR][dP][dR]-NH2) | 1.0 fold | 76% | – | – | –
4 | CC(=O)N[C@H](CS)C(=O)NCC(=O)N[C@H](CCCNC(=N)N)C(=O)N[C@H](CCCNC(=N)N)C(=O)N[C@H](CCCNC(=N)N)C(=O)N[C@H](C)C(=O)N[C@H](CCCNC(=N)N)C(N)=O [SEQ ID NO: 95, Ac-cGrrrar-NH2] (Ac-[dC]G[dR][dR][dR][dA][dR]-NH2) | 1.5 fold | 45% | – | – | –
5 | CC(=O)N[C@H](CS)C(=O)N[C@H](Cc1ccccc1)C(=O)N[C@H](CCCNC(=N)N)C(=O)N[C@H](CCCNC(=N)N)C(=O)N[C@H](CCCNC(=N)N)C(=O)N[C@H](C)C(=O)N[C@H](CCCNC(=N)N)C(N)=O [SEQ ID NO: 104, Ac-cfrrrar-NH2] (Ac-[dC][dF][dR][dR][dR][dA][dR]-NH2) | 6.8 fold | 0% | – | – | –
6 | CC(=O)N[C@H](CS)C(=O)N[C@H](C)C(=O)N[C@H](C)C(=O)N[C@H](CCCNC(=N)N)C(=O)N[C@H](CCCNC(=N)N)C(=O)N[C@H](CCCNC(=N)N)C(=O)N[C@H](CCCNC(=N)N)C(N)=O [SEQ ID NO: 22, Ac-caarrrr-NH2] (Ac-[dC][dA][dA][dR][dR][dR][dR]-NH2) | 1.2 fold | – | 24% | 48% | –
7 | CC(=O)N[C@H](CS)C(=O)N[C@H](Cc1c[nH]cn1)C(=O)N[C@H](CCCNC(=N)N)C(=O)N[C@H](CCCNC(=N)N)C(=O)N[C@H](CCCNC(=N)N)C(=O)N[C@H](C)C(=O)N[C@H](CCCNC(=N)N)C(N)=O [SEQ ID NO: 103, Ac-chrrrar-NH2] (Ac-[dC][dH][dR][dR][dR][dA][dR]-NH2) | 1.6 fold | 1% | – | – | –
8 | CC(=O)N[C@H](CS)C(=O)N[C@H](CCCNC(=N)N)C(=O)N[C@H](CCCNC(=N)N)C(=O)N[C@H](C)C(=O)N[C@H](C)C(=O)N[C@H](CCCNC(=N)N)C(=O)N[C@H](CCCNC(=N)N)C(N)=O [SEQ ID NO: 17, Ac-crraarr-NH2] (Ac-[dC][dR][dR][dA][dA][dR][dR]-NH2) | 1.3 fold | – | 39% | 102% | –
9 | CC(=O)N[C@H](CS)C(=O)N[C@H](CO)C(=O)N[C@H](CCCNC(=N)N)C(=O)N[C@H](CCCNC(=N)N)C(=O)N[C@H](CCCNC(=N)N)C(=O)N[C@H](C)C(=O)N[C@H](CCCNC(=N)N)C(N)=O [SEQ ID NO: 102, Ac-csrrrar-NH2] (Ac-[dC][dS][dR][dR][dR][dA][dR]-NH2) | 0.9 fold | 13% | – | – | –
10 | CC(=O)N[C@H](CS)C(=O)N[C@H](C)C(=O)N[C@H](CCCNC(=N)N)C(=O)N[C@H](CCCNC(=N)N)C(=O)N[C@H](CCCNC(=N)N)C(=O)N[C@H](CCC(N)=O)C(=O)N[C@H](CCCNC(=N)N)C(N)=O [SEQ ID NO: 90, Ac-carrrqr-NH2] (Ac-[dC][dA][dR][dR][dR][dQ][dR]-NH2) | 0.9 fold | 41% | – | – | –
11 | CC(=O)N[C@H](CS)C(=O)N[C@H](CCCNC(=N)N)C(=O)N[C@H](C)C(=O)N[C@H](CCCNC(=N)N)C(=O)N[C@H](C)C(=O)N[C@H](CCCNC(=N)N)C(=O)N[C@H](CCCNC(=N)N)C(N)=O [SEQ ID NO: 18, Ac-crararr-NH2] (Ac-[dC][dR][dA][dR][dA][dR][dR]-NH2) | 1.4 fold | – | 72% | 87% | –
12 | CC(=O)N[C@H](CS)C(=O)N[C@H](CCCNC(=N)N)C(=O)N[C@H](CCCNC(=N)N)C(=O)N[C@H](CCCNC(=N)N)C(=O)N[C@H](C)C(=O)N[C@H](C)C(=O)N[C@H](CCCNC(=N)N)C(N)=O [SEQ ID NO: 21, Ac-crrraar-NH2] (Ac-[dC][dR][dR][dR][dA][dA][dR]-NH2) | 1.0 fold | – | 36% | 50% | –

More lines, main results first:

Row | Histamine in vitro Fold change of non-treated at 10 uM [1] | Compound | 0.5 mg/kg IV bolus % PTH AUC of saline control (plasma PTH; Table 6) | % PTH reduction of baseline at 1 hour post IV administration of 0.5 mg/kg compound (plasma PTH; Table 2) | 0.5 mg/kg IV bolus % PTH AUC of saline control (plasma PTH; Table 2) | 0.5 mg/kg IV bolus % PTH AUC of saline control (plasma PTH; Table 7)
13 | 2.3 fold | CC(=O)N[C@H](CS)C(=O)N[C@H](CCCNC(=N)N)C(=O)N[C@H](CCCNC(=N)N)C(=O)N[C@H](Cc1c[nH]cn1)C(=O)N[C@H](CCCNC(=N)N)C(=O)N[C@H](C)C(=O)N[C@H](CCCNC(=N)N)C(N)=O [SEQ ID NO: 109, Ac-crrhrar-NH2] (Ac-[dC][dR][dR][dH][dR][dA][dR]-NH2) | 9% | – | – | –
14 | 1.9 fold | CC(=O)N[C@H](CS)C(=O)N[C@H](CCCNC(=N)N)C(=O)N[C@H](CCCNC(=N)N)C(=O)N[C@@H](C(=O)N[C@H](CCCNC(=N)N)C(=O)N[C@H](C)C(=O)N[C@H](CCCNC(=N)N)C(N)=O)C(C)C [SEQ ID NO: 113, Ac-crrvrar-NH2] (Ac-[dC][dR][dR][dV][dR][dA][dR]-NH2) | 3% | – | – | –
15 | 6.2 fold | CC(=O)N[C@H](CS)C(=O)N[C@H](CCCNC(=N)N)C(=O)N[C@H](CCCNC(=N)N)C(=O)N[C@H](Cc1ccccc1)C(=O)N[C@H](CCCNC(=N)N)C(=O)N[C@H](C)C(=O)N[C@H](CCCNC(=N)N)C(N)=O [SEQ ID NO: 110, Ac-crrfrar-NH2] (Ac-[dC][dR][dR][dF][dR][dA][dR]-NH2) | 6% | – | – | –
16 | 3.4 fold | CC[C@@H](C)[C@@H](NC(=O)[C@@H](CCCNC(=N)N)NC(=O)[C@@H](CCCNC(=N)N)NC(=O)[C@@H](CS)NC(C)=O)C(=O)N[C@H](CCCNC(=N)N)C(=O)N[C@H](C)C(=O)N[C@H](CCCNC(=N)N)C(N)=O [SEQ ID NO: 115, Ac-crrirar-NH2] (Ac-[dC][dR][dR][dI][dR][dA][dR]-NH2) | 0% | – | – | –
17 | 2.2 fold | CCCC[C@@H](NC(=O)[C@@H](CS)NC(C)=O)C(=O)N[C@H](CCCNC(=N)N)C(=O)N[C@H](CCCNC(=N)N)C(=O)N[C@H](CCCNC(=N)N)C(=O)N[C@H](C)C(=O)N[C@H](CCCNC(=N)N)C(N)=O [SEQ ID NO: 134, Ac-c-dNle-rrrar-NH2] (Ac-[dC][dNle][dR][dR][dR][dA][dR]-NH2) | – | – | – | 10%
